# Source: patent publication US20210395721A1, “METHODS TO IMPROVE POTENCY OF ELECTROPORATION” (Codiak BioSciences, Inc., priority 2018, published 2021)
# How the values were obtained:
# [1] = Anion exchange chromatography (AEX) of siRNA before and after electroporation; type: physicochemical; details: for effect of excipient on AEX profile of XD-08318 after electroporation: 5 ms per pulse
# Experimental: Anion exchange chromatography (AEX) was carried out on an Agilent 1100 HPLC using a […] PA200 column (Thermo Scientific). The column was equilibrated in 50 mM Tris pH 7.4, and 20 ng of each siRNA sample was prepared in a 100 μl HPLC vial for injection. The sample was injected and subjected to a gradient of 50 mM Tris pH 7.4 (mobile phase A) and 50 mM Tris, 1 M NaCl, pH 7.4 (mobile phase B) according to Tables 1 and 2, below. Electroporation is a common method for introducing nucleic acids into cells and other lipid structures such as exosomes. As an analytical method, siRNAs were analyzed by anion exchange chromatography (AEX), as described above, before and after electroporation. […] XD-08318 is a modified siRNA that contains a 5' terminal deoxyribose residue on the antisense strand, a combination of natural ribose and synthetic 2'-O-methyl ribose residues, and phosphorothioate linkages at the 3' ends of each strand (FIG. 2). Synthetic RNA XD-08318 was electroporated in the presence of several free radical scavengers and reducing agents as excipients.
# KRAS G12D transcript = KRAS G12D transcript knockdown in Panc-1 cells; type: cell-based, human; details: FIG. 14, samples #9, #10 vs #4-8
# Experimental: XD-08318 was loaded into exosomes by electroporation in the presence or absence of free radical scavengers. As a control, XD-08318 was transfected into the human pancreatic cancer cell line Panc-1, which is heterozygous for the G12D mutant transcript of KRAS. […] As controls, in the absence of any transfection reagent, Panc-1 cells were incubated with a mixture of the siRNA and exosomes without electroporation (mix), siRNA only, exosomes alone (EV only), or in the presence of siRNA and exosomes that were electroporated individually (si EP+EV EP Mix). […] Next, XD-08318 was loaded into exosomes by electroporation at pulse code 42 (sample 4) and incubated with cells, resulting in a modest ˜30% repression of the target transcript.
# [2] = MaxCyte strong pulse code 66 (high field strength, high frequency)
smiles,measurement,setting,value
N[C@@H](CCC(=O)N[C@@H](CS)C(=O)NCC(=O)O)C(=O)O [Glutathione],effect of excipient on AEX profile of XD-08318 after electroporation,"[1]; Gene Pulser XCell (Bio-Rad), 800 V, 2 pulses",prevent a change in the AEX profile
same,effect of excipient on AEX spectral shift of XD-08318 after electroporation,[1]; [2],prevented the spectral shift
same,effect of excipient on AEX profile of XD-08318 after electroporation,"[1]; Neon Transfection System, 2000 V, 8 pulses",prevent a change in the AEX profile
CSCC[C@H](N)C(=O)O [L-Methionine],"knock-down by modified siRNA electroporated into exosomes in presence of the scavenger, compared to absence of free radical scavengers",KRAS G12D transcript,increased knock-down
same,effect of excipient on AEX spectral shift of XD-08318 after electroporation,[1]; [2],prevented the spectral shift
N[C@@H](CS)C(=O)O [L-cysteine],effect of excipient on AEX spectral shift of XD-08318 after electroporation,"[1]; MaxCyte intermediate pulse code 63 (high field strength, low frequency)",prevented the spectral shift
same,effect of excipient on AEX spectral shift of XD-08318 after electroporation,[1]; [2],prevented the spectral shift
